Assay results: patent publication US8470828B2, “Anellated pyridine compounds” (Hoffmann-La Roche Inc., priority 2010, dated 2013)

Experiments:
human D2 receptor = molecular target: T1, human D2 receptor (Homo sapiens, UniProt P14416); assay: Radioligand binding to cloned human D2 receptor expressed in HEK-293 EBNA cells ([3H]-spiperone); conditions: HEK293 EBNA cell membranes, approximately 0.7 nM [3H]-spiperone, 1 h at RT
T1 construct: expressed in transfected cells; host or cells: HEK293 EBNA cells, transient transfection; membrane preparation
Description: (§1) HEK293 EBNA cells were transiently transfected with expression plasmids encoding for the human D2 or D3 or for the human 5-HT2A receptor, respectively. The cells were harvested 48 h post-transfection, washed three times with cold PBS and stored at −80° C. prior to use. The pellet was suspended in cold 50 mM Tris-HCl buffer comprising 10 mM EDTA (pH 7.4) and was homogenized with a Polytron (Kinematica A G, Basel, Switzerland) for 20-30 sec at 12.000 rpm. After centrifugation at 48.000×g for 30 min at 4° C., the pellet was resuspended in cold 10 mM Tris-HCl buffer comprising 0.1 mM EDTA (pH 7.4), homogenized, and centrifuged as above. This pellet was further resuspended in a smaller volume of ice cold 10 mM Tris-HCl buffer comprising 0.1 mM EDTA (pH 7.4) and homogenized with a Polytron for 20-30 sec at 12.000 rpm. The protein content of this homogenate was determined with the Bio-Rad (Bradford) Protein Assay (Biorad Laboratories GmbH, München, Germany) according to the instructions of the manufacturer using gamma globulin as the standard. This homogenate was stored at −80° C. in aliquots and thawed immediately prior to use.
(§2) Aliquots of membrane preparations were thawed at RT, resupended in assay buffer (D2, D3: 50 mM Tris-HCl, 120 mM NaCl, 5 mM MgCl2, 1 mM EDTA, 5 mM KCl, 1.5 mM CaCl2, pH=7.4; 5-HT2A: 50 mM Tris-HCl, 10 mM MgCl2, 1 mM EGTA, pH=7.4), homogenized with a Polytron for 20-30 sec at 12.000 rpm and adjusted to a final concentration of approximately 7.5 μg protein/well (D2, D3) and 15 μg protein/well (5-HT2A), respectively.
(§3) The binding affinity (Ki) of the compounds was determined using radioligand binding. Membranes were incubated in a total volume of 200 μl with a fixed concentration of radioligand (final concentration approximately 0.7 nM [^3H]-spiperone for D2, 0.5 nM [^3H]-spiperone for D3, and 1.1 nM [^3H]-ketanserin for 5-HT2A) and ten concentrations of test compound in ranging between 10 μM-0.1 nM for 1 h at RT. At the end of the incubation, the reaction mixtures were filtered on to unifilter 96-well white microplates with bonded GF/C filters (Packard BioScience, Zürich, Switzerland; preincubated for 1 h in 0.1% polyethylenimine (PEI) in assay buffer) with a Filtermate 196 harvester (Packard BioScience) and washed 3 times with cold assay buffer. The nonspecific binding was determined with equally composed reaction mixtures in the presence of 10 μM unlabelled spiperone. Per well 45 μl of Microscint 40 (Perkin Elmer, Schwerzenbach, Switzerland) was added, plates for sealed, shaken for 20 min and counted for 3 min on a Topcount Microplate Scintillation Counter (Can berra Packard S A, Zürich, Switzerland) with quenching correction.
(§4) The CPM value for each duplicate of a concentration of competing compound was averaged (y1), then the % specific binding was calculated according to the equation (((y1−non-specific)/(total binding−non-specific))×100). Graphs were plotted with the % specific binding using XLfit, a curve fitting program that iteratively plots the data using Levenberg-Marquardt algorithm. The single site competition analysis equation used was y=A+((B−A)/(1+((x/C)D))), where y is the % specific binding, A is the minimum y, B is the maximum y, C is the IC50, x is the log 10 of the concentration of the competing compound and D is the slope of the curve (the Hill Coefficient). […] The affinity constant (Ki) was calculated using the Cheng-Prusoff equation Ki=(IC50/1+([L]/Kd), where [L] is the concentration of radioligand and Kd is the dissociation constant of the radioligand at the receptor as determined by the saturation isotherm.

human 5-HT2A receptor = human 5-HT2A receptor (Homo sapiens, UniProt P28223); assay: Radioligand binding to cloned human 5-HT2A receptor expressed in HEK-293 EBNA cells ([3H]-ketanserin)
human D3 receptor = human D3 receptor (Homo sapiens, UniProt P35462); assay: Radioligand binding to cloned human D3 receptor expressed in HEK-293 EBNA cells ([3H]-spiperone)
Sequence of human D3 receptor (P35462 whole entry): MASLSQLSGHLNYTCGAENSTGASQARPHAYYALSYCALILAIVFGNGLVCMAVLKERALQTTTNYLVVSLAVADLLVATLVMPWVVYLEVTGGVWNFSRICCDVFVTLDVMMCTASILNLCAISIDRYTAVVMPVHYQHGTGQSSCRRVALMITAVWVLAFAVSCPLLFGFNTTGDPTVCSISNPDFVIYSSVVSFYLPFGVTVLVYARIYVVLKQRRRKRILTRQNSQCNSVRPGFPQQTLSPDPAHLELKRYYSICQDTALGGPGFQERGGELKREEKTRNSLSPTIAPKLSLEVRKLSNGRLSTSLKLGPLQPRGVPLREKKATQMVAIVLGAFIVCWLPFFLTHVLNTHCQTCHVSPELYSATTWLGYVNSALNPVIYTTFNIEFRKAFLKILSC
Description: as §1, §2, §3, §4

T1 sequence (P14416 whole entry): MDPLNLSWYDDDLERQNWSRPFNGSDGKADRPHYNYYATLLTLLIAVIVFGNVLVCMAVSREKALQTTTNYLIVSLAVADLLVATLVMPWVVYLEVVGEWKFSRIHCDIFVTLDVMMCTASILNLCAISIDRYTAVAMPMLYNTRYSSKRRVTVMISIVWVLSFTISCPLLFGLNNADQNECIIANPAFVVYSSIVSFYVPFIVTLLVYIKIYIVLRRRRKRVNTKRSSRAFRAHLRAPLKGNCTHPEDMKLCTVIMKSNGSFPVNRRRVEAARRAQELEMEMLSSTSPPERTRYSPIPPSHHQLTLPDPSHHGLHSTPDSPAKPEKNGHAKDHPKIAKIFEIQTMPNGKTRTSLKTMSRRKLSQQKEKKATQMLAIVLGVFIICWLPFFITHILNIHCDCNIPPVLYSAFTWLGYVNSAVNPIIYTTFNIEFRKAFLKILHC
Sequence of human 5-HT2A receptor (P28223 whole entry): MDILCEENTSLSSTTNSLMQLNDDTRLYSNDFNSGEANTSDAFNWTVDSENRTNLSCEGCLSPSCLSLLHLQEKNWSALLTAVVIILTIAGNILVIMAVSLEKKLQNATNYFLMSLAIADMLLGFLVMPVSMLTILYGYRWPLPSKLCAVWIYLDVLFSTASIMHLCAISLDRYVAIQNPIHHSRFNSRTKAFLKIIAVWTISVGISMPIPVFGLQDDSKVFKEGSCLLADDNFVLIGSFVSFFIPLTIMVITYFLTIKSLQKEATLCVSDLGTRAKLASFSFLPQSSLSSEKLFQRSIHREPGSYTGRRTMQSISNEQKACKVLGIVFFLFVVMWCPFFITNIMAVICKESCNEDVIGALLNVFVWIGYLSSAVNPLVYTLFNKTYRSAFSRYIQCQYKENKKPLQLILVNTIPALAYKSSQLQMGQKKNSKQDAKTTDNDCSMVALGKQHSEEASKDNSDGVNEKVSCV

melting point	Ki (human D2 receptor)	Ki (human 5-HT2A receptor)	Ki (human D3 receptor)	D2 Ki (human D2 receptor)	SMILES
139 °C	904 nM	49.6 nM	14 nM	–	CC(C)(O)CC(=O)N[C@H]1CC[C@H](CCN2CCN(c3nccc4c3OCC4)CC2)CC1 [Example 46, trans-N-(4-{2-[4-(2,3-Dihydro-furo[2,3-c]pyridin-7-yl)-piperazin-1-yl]-ethyl}-cyclohexyl)-3-hydroxy-3-methyl-butyramide]
214.5 °C	943 nM	89 nM	15 nM	–	O=C(C[C@@H](O)C(F)(F)F)N[C@H]1CC[C@H](CCN2CCN(c3nccc4c3OCC4)CC2)CC1 [Example 47, trans-(R)—N-(4-{2-[4-(2,3-Dihydro-furo[2,3-c]pyridin-7-yl)-piperazin-1-yl]-ethyl}-cyclohexyl)-4,4,4-trifluoro-3-hydroxy-butyramide]
217 °C	1090 nM	56.8 nM	18.2 nM	–	CC[C@H](O)CC(=O)N[C@H]1CC[C@H](CCN2CCN(c3nccc4c3OCC4)CC2)CC1 [Example 48, trans-(S)-3-Hydroxy-pentanoic acid (4-{2-[4-(2,3-dihydro-furo[2,3-c]pyridin-7-yl)-piperazin-1-yl]-ethyl}-cyclohexyl)-amide]
257 °C	723 nM	82.3 nM	10.4 nM	–	O=C(CCO)N[C@H]1CC[C@H](CCN2CCN(c3nccc4c3OCC4)CC2)CC1 [Example 49, trans-N-(4-{2-[4-(2,3-Dihydro-furo[2,3-c]pyridin-7-yl)-piperazin-1-yl]-ethyl}-cyclohexyl)-3-hydroxy-propionamide]
168 °C	726 nM	50.3 nM	10.4 nM	–	CCCCC(=O)N[C@H]1CC[C@H](CCN2CCN(c3nccc4c3OCC4)CC2)CC1 [Example 51, Pentanoic acid trans-(4-{2-[4-(2,3-dihydro-furo[2,3-c]pyridin-7-yl)-piperazin-1-yl]-ethyl}-cyclohexyl)-amide]
199 °C	948 nM	44 nM	13.4 nM	–	CO[C@H]1CC[C@H](CC(=O)N[C@H]2CC[C@H](CCN3CCN(c4nccc5c4OCC5)CC3)CC2)C1 [Example 52, trans-N-(4-{2-[4-(2,3-Dihydro-furo[2,3-c]pyridin-7-yl)-piperazin-1-yl]-ethyl}-cyclohexyl)-2-((1S,3S)-3-methoxy-cyclopentyl)-acetamide]
241 °C	1130 nM	8.48 nM	44.7 nM	–	CC(C)(O)C(=O)N[C@H]1CC[C@H](CCN2CCN(c3nccc4c3OCC4)CC2)CC1 [Example 59, trans-N-(4-{2-[4-(2,3-Dihydro-furo[2,3-c]pyridin-7-yl)-piperazin-1-yl]-ethyl}-cyclohexyl)-2-hydroxy-2-methyl-propionamide]
218 °C	1280 nM	38.2 nM	7.22 nM	–	COC(CC(=O)N[C@H]1CC[C@H](CCN2CCN(c3nccc4c3OCC4)CC2)CC1)OC [Example 62, trans-N-(4-{2-[4-(2,3-Dihydro-furo[2,3-c]pyridin-7-yl)-piperazin-1-yl]-ethyl}-cyclohexyl)-3,3-dimethoxy-propionamide]
204.5 °C	1920 nM	35.3 nM	22.1 nM	–	COC(CCC(=O)N[C@H]1CC[C@H](CCN2CCN(c3nccc4c3OCC4)CC2)CC1)OC [Example 63, trans-N-(4-{2-[4-(2,3-Dihydro-furo[2,3-c]pyridin-7-yl)-piperazin-1-yl]-ethyl}-cyclohexyl)-4,4-dimethoxy-butyramide]

The next lines start with the molecule.

SMILES	melting point	Ki (human D2 receptor)	Ki (human 5-HT2A receptor)	Ki (human D3 receptor)	D2 Ki (human D2 receptor)
O=C(N[C@H]1CC[C@H](CCN2CCN(c3nccc4c3OCC4)CC2)CC1)C(F)(F)F [Example 50, trans-N-(4-{2-[4-(2,3-Dihydro-furo[2,3-c]pyridin-7-yl)-piperazin-1-yl]-ethyl}-cyclohexyl)-2,2,2-trifluoro-acetamide]	198.5 °C	551 nM	45.7 nM	29.5 nM	–
O=CN[C@H]1CC[C@H](CCN2CCN(c3nccc4c3OCC4)CC2)CC1 [Example 53, trans-N-(4-{2-[4-(2,3-Dihydro-furo[2,3-c]pyridin-7-yl)-piperazin-1-yl]-ethyl}-cyclohexyl)-formamide]	153.5 °C	1110 nM	70.2 nM	23.1 nM	–
O=C(N[C@H]1CC[C@H](CCN2CCN(c3nccc4c3OCC4)CC2)CC1)c1ccc(Cl)cc1 [Example 54, trans-4-Chloro-N-(4-{2-[4-(2,3-dihydro-furo[2,3-c]pyridin-7-yl)-piperazin-1-yl]-ethyl}-cyclohexyl)-benzamide]	251.5 °C	2390 nM	66.7 nM	12.6 nM	–
O=C(N[C@H]1CC[C@H](CCN2CCN(c3nccc4c3OCC4)CC2)CC1)c1ccc(C(F)(F)F)cc1 [Example 55, trans-N-(4-{2-[4-(2,3-Dihydro-furo[2,3-c]pyridin-7-yl)-piperazin-1-yl]-ethyl}-cyclohexyl)-4-trifluoromethyl-benzamide]	242.5 °C	–	78.7 nM	51.5 nM	inactive
CC(C)(C)c1ccc(C(=O)N[C@H]2CC[C@H](CCN3CCN(c4nccc5c4OCC5)CC3)CC2)cc1 [Example 56, trans-4-tert-Butyl-N-(4-{2-[4-(2,3-dihydro-furo[2,3-c]pyridin-7-yl)-piperazin-1-yl]-ethyl}-cyclohexyl)-benzamide]	183 °C	1930 nM	67.4 nM	79.5 nM	–
O=C(N[C@H]1CC[C@H](CCN2CCN(c3nccc4c3OCC4)CC2)CC1)c1ccc(N2CCCCC2)cc1 [Example 57, trans-N-(4-{2-[4-(2,3-Dihydro-furo[2,3-c]pyridin-7-yl)-piperazin-1-yl]-ethyl}-cyclohexyl)-4-piperidin-1-yl-benzamide]	182.5 °C	1760 nM	50.6 nM	42.7 nM	–
O=C(N[C@H]1CC[C@H](CCN2CCN(c3nccc4c3OCC4)CC2)CC1)c1ccc2c(c1)OCO2 [Example 60, Benzo[1,3]dioxole-5-carboxylic acid trans-(4-{2-[4-(2,3-dihydro-furo[2,3-c]pyridin-7-yl)-piperazin-1-yl]-ethyl}-cyclohexyl)-amide]	213.5 °C	348 nM	23 nM	7.32 nM	–
Cc1cc(C(=O)N[C@H]2CC[C@H](CCN3CCN(c4nccc5c4OCC5)CC3)CC2)on1 [Example 61, 3-Methyl-isoxazole-5-carboxylic acid trans-(4-{2-[4-(2,3-dihydro-furo[2,3-c]pyridin-7-yl)-piperazin-1-yl]-ethyl}-cyclohexyl)-amide]	199 °C	488 nM	48.6 nM	26.1 nM	–
Cc1nc(-c2cccc(C(=O)N[C@H]3CC[C@H](CCN4CCN(c5nccc6c5OCC6)CC4)CC3)c2)no1 [Example 64, trans-N-(4-{2-[4-(2,3-Dihydro-furo[2,3-c]pyridin-7-yl)-piperazin-1-yl]-ethyl}-cyclohexyl)-3-(5-methyl-[1,2,4]oxadiazol-3-yl)-benzamide]	227.5 °C	–	54.4 nM	4.43 nM	inactive
O=C(N[C@H]1CC[C@H](CCN2CCN(c3nccc4c3OCC4)CC2)CC1)c1ccc(-n2cccn2)cc1 [Example 65, trans-N-(4-{2-[4-(2,3-Dihydro-furo[2,3-c]pyridin-7-yl)-piperazin-1-yl]-ethyl}-cyclohexyl)-4-pyrazol-1-yl-benzamide]	225.5 °C	502 nM	29.2 nM	11.1 nM	–
O=C(N[C@H]1CC[C@H](CCN2CCN(c3nccc4c3OCC4)CC2)CC1)c1ccc(-n2cccc2)cc1 [Example 66, trans-N-(4-{2-[4-(2,3-Dihydro-furo[2,3-c]pyridin-7-yl)-piperazin-1-yl]-ethyl}-cyclohexyl)-4-pyrrol-1-yl-benzamide]	236.5 °C	240 nM	38 nM	13.8 nM	–
O=C(N[C@H]1CC[C@H](CCN2CCN(c3nccc4c3OCC4)CC2)CC1)c1ccc(Cl)cc1Cl [Example 67, trans-2,4-Dichloro-N-(4-{2-[4-(2,3-dihydro-furo[2,3-c]pyridin-7-yl)-piperazin-1-yl]-ethyl}-cyclohexyl)-benzamide]	243.5 °C	5050 nM	93.3 nM	47.2 nM	–
CN1CCN(c2ccc(C(=O)N[C@H]3CC[C@H](CCN4CCN(c5nccc6c5OCC6)CC4)CC3)cc2)CC1 [Example 68, trans-N-(4-{2-[4-(2,3-Dihydro-furo[2,3-c]pyridin-7-yl)-piperazin-1-yl]-ethyl}-cyclohexyl)-4-(4-methyl-piperazin-1-yl)-benzamide]	235.5 °C	120 nM	4.86 nM	6 nM	–
Cc1ccc(C(=O)N[C@H]2CC[C@H](CCN3CCN(c4nccc5c4OCC5)CC3)CC2)cn1 [Example 69, trans-N-(4-{2-[4-(2,3-Dihydro-furo[2,3-c]pyridin-7-yl)-piperazin-1-yl]-ethyl}-cyclohexyl)-6-methyl-nicotinamide]	204 °C	597 nM	25.2 nM	17.3 nM	–
O=C(N[C@H]1CC[C@H](CCN2CCN(c3nccc4c3OCC4)CC2)CC1)c1ccc(-c2ccccc2)cc1 [Example 70, Biphenyl-4-carboxylic acid trans-(4-{2-[4-(2,3-dihydro-furo[2,3-c]pyridin-7-yl)-piperazin-1-yl]-ethyl}-cyclohexyl)-amide]	220.5 °C	556 nM	45.6 nM	18.4 nM	–
